Measured values taken from PubChem BioAssay (NCI).
Where “and” joins values, the source holds several entries; their conditions need not be identical. Equal values may be shown once.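 These data come from cells grown in 96-well plates and exposed to compound for 48 hours at five concentrations. Abbreviation: GI50, concentration required for 50% inhibition of growth. TGI denotes the concentration required for complete inhibition of growth.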

Columns and labels:
Experiment in all cases: DTP human tumour cell line panel, 48 h
HS 578T breast = system: HS 578T breast
ACHN renal = system: ACHN renal
SNB-75 CNS = system: SNB-75 CNS
SK-MEL-5 melanoma = system: SK-MEL-5 melanoma
A549 NSCLC = system: A549 NSCLC
NCI-H460 lung = system: NCI-H460 lung
PC-3 prostate = system: PC-3 prostate
CAKI-1 renal = system: CAKI-1 renal
UACC-62 melanoma = system: UACC-62 melanoma

SMILES | TGI (HS 578T breast) [µM] | TGI (ACHN renal) [µM] | TGI (SNB-75 CNS) [µM] | TGI (SK-MEL-5 melanoma) [µM] | TGI (A549 NSCLC) [µM] | TGI (NCI-H460 lung) [µM] | TGI (PC-3 prostate) [µM] | TGI (CAKI-1 renal) [µM] | TGI (UACC-62 melanoma) [µM] | GI50 (UACC-62 melanoma) [µM] | GI50 (SNB-75 CNS) [µM] | GI50 (SK-MEL-5 melanoma) | GI50 (NCI-H460 lung) | GI50 (PC-3 prostate) | GI50 (CAKI-1 renal) [µM] | GI50 (HS 578T breast) [µM] | GI50 (ACHN renal) [µM]
O=c1cnn(C/C=C\CO)c(=O)[nH]1 | > 100 | > 100 | > 100 | > 100 | > 100 | > 100 | > 100 | > 100 |  |  |  |  |  |  |  |  | 
CCOC(=O)c1ccc(N=NN(C)C(=O)C(C)N)cc1 (stereo not given) |  | > 100 | > 100 | > 100 |  | > 100 | > 100 | > 100 | > 100 |  |  |  |  |  |  |  | 
CCc1nn(CN2CCN(C)CC2)c(=S)n1/N=C\c1ccc(-c2ccc([N+](=O)[O-])cc2)o1 | > 100 | > 100 |  | > 100 | > 100 | > 100 | > 100 | > 100 | > 100 |  |  |  |  |  |  |  | 
COc1cc2c(cc1OCCCN1CCN(CCCOc3cc4c(cc3OC)C(=O)N3CCC[C@H]3C=N4)CC1)C=CC(C)(C)O2 |  |  | 2.74 | 2.53 |  | 2.32 | 2.09 | 2.12 | 2.73 | 1.42 | 1.26 | 1.27 µM | 1.1 µM | 0.804 µM | 0.827 |  | 
COc1cc(/C=C2/SC(c3ccccc3)N(c3ccc(NC(C)=O)cc3)C2=O)cc(OC)c1OC (stereo not given) | > 100 | > 100 |  | > 100 | > 100 | > 100 |  | > 100 | > 100 |  |  |  |  |  |  |  | 
O=C1NC(N/N=C\C(O)C(O)C(O)CO)=N/C1=C/c1ccccc1 (stereo not given) | > 100 | > 100 | > 100 | > 100 | > 100 | > 100 | > 100 | > 100 |  |  |  | > 100 µM and 38.9 µM | > 100 µM and 43.4 µM | > 100 µM and 48.9 µM |  |  | 
FC(F)(F)c1ccc(-c2nc(-c3nc4cc(Cl)c(Cl)cc4[nH]3)c3ccccn23)cc1 | > 100 | 28.5 | 4.3 | > 100 |  |  |  |  | > 100 | 15.6 | 1.45 | 4.2 µM |  |  |  | 3.99 | 3.9
CCCCNC1CCC2(SCCS2)c2[nH]c3ccccc3c21 (stereo not given) | > 82.1 | > 100 | > 100 | 18 | > 100 | > 100 | > 67.3 |  | > 83.8 |  |  |  |  |  |  |  | 
c1csc(-c2ccc(-c3ccc(-c4ccc(-c5cccs5)s4)s3)s2)c1 | > 100 | > 100 | > 100 | > 100 |  | > 100 |  | > 100 | > 100 |  |  |  |  |  |  |  | 
CC[C@@]1(O)C(=O)OCc2c1cc1n(c2=O)Cc2c-1nc1ccccc1c2/C=N\NC(=O)C(N)CC(C)C (stereo not given in full) | > 100 |  | < 0.0248 | 0.0807 | 2.16 | 1.26 | > 100 | 0.181 | 0.0748 |  |  |  |  |  |  |  | 
COC(=O)c1c2c(cc3c1CC1(Cc4ccccc4C1=O)C3)CCC2 (stereo not given) | > 100 | > 100 | > 100 | 29.5 | > 100 | > 100 | > 100 | > 100 |  |  |  |  |  |  |  |  | 
CC[n+]1cnc(N)c2c(-c3ccc(Cl)cc3)cn(-c3ccc(C)cc3)c21 |  | 25.6 | 14.1 | 22 | 25.7 | 35.8 | 25 | 30.6 | 24.3 |  |  |  |  |  |  |  | 
C1=C\SS/C=C\SS/C=C\SS/C=C\SS/1 | > 100 | > 100 |  | > 100 | > 100 | 68.3 | > 100 | > 100 | > 100 |  |  |  |  |  |  |  | 
COc1cccc2c1OC1c3ccccc3OCC1C2 (stereo not given) |  |  | 20.6 | > 100 | > 100 |  | > 100 | > 100 | > 100 |  |  |  |  |  |  |  | 
Nc1nc(N)c2ncn(CC3CCC(CO)C3)c2n1 (stereo not given) | > 100 | > 100 | > 100 | > 100 | > 100 |  | > 100 | > 100 | > 100 |  |  |  |  |  |  |  | 
CCOC(=O)c1cn(-c2ccccc2)c(=S)n2c1nc1ccccc12 |  | > 100 | > 100 | > 89.6 | > 100 | > 100 | > 90 | > 100 | > 100 |  |  |  |  |  |  |  | 
CCC(C)[C@H](NC(=O)[C@H](Cc1ccccc1)NC(=O)N(CC)c1ccccc1)C(=O)N[C@@H](CC(C)C)C(=O)OC (stereo not given in full) | > 100 | 72.7 | > 100 | 59.8 | > 100 |  | > 100 | > 100 | > 100 |  |  |  |  |  |  |  | 
